Laboratory results taken from publication PMC6884575, “Suppression of FOXM1 activities and breast cancer growth in vitro and in vivo by a new class of compounds” (NPJ Breast Cancer, 2019).

Tests used:
MCF10A breast cell line = test: Cell proliferation in non-tumorigenic MCF10A cells; format: cell-based, human; conditions: low level of FOXM1
Experimental: (§1) WST-1 assay (Roche, Basel, Switzerland) was used to quantify cell viability as described.[38] Absorbance was measured at 450 nm using a VICTOR X5 PerkinElmer 2030 Multilabel Plate Reader. All assays were performed in triplicate and analyzed using Graph Pad Prism 8.0.

[1] = system: MDA-MB-231 and MDA-MB-453 breast cancer cells; test: Cell proliferation in triple negative MDA-MB-231 and MDA-MB-453 cells; format: cell-based; conditions: Homo sapiens, read-out: IC50 antiproliferative
Experimental: as §1

[2] = Pharmacokinetics in mice after single s.c. or oral dose; format: in vivo, female CD1 mice; conditions: for AUC / Cmax / half-life: female, CD1, mouse, 40 mg/kg, single dose, plasma
FOXM1 = molecular target: T1, FOXM1 (Homo sapiens, UniProt Q08050); test: tr-FRET competitive binding assay with Fl-NB-72 probe; design: we attached a terbium donor to purified, full length FOXM1 through a streptavidin-biotin linker; conditions: displacement of Fl-NB-72 (100 nM), tr-FRET
T1 sequence (Q08050 1-763): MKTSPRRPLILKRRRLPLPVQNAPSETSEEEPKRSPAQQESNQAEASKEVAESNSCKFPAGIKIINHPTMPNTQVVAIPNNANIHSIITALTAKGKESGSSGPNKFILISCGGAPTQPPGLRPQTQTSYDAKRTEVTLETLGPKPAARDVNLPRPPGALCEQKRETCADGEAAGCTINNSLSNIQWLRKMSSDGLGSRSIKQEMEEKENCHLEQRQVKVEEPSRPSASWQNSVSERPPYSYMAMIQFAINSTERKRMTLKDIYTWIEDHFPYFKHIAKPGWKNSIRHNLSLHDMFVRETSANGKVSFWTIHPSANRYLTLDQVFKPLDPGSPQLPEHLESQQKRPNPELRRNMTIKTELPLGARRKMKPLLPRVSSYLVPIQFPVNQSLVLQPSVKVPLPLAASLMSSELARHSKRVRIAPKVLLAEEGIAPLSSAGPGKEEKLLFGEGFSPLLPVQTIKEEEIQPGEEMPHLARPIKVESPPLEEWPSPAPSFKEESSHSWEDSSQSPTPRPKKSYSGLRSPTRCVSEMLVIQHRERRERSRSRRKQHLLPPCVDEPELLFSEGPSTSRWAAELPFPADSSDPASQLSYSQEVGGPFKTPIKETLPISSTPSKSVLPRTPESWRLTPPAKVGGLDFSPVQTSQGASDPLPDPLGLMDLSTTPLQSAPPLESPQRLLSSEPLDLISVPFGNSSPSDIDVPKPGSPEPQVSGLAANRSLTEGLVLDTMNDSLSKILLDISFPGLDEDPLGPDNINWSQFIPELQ
Experimental: Competitive binding assays of compound binding to FOXM1 by tr-FRET were done in FRET buffer (20 mM Tris, pH 7.5, 50 mM NaCl, 0.01% NP-40 detergent, 10% glycerol) with 0.3 mg/ml ovalbumin and 0.1 mM butylated hydroxy-anisole added fresh daily. Solutions of the protein, fluorescent probe and compound dilutions were prepared at 3× concentrations, the final dilution taking place as they were mixed together in equal portions on the microtiter plate.
Final concentrations were 10^−5 M to 10^−9 M, with the last point being buffer only, no compound. Fluorescein-NB-72 (Fl-NB- 72) was prepared at 1 mM in DMF and stored at −20 °C. It was diluted into FRET buffer to give 100 nM in the assay. Incubations were done in duplicate on black Molecular Devices 96-well microtiter plates. 5 μl of Fl-NB-72 and 5 μl of the compound dilutions, were mixed together on the plate. To this was added 5 µl biotin-FoxM1 and incubated in the dark at room temperature, for 1 h. […] To correct for background signals, biotin-FOXM1 was omitted, and diffusion-enhanced FRET incubations were done in duplicate on black Molecular Devices 96-well microtiter plates. Five microliter of Fl-NB-72 and 5 μl of the compound solutions were mixed together and then 5 µl of FRET buffer plus SaTb was added, mixed and incubated in the dark at room temperature, for 1 h. The tr-FRET signals measured as above were subtracted as a background from the first incubations that contained biotin-FOXM1. Graphs were prepared using Graph Pad/Prism 4.

IC50 [1]: 3000 to 5000 nM | PK properties (half-lives and blood levels achieved) ([2]; after oral administration): good PK properties | PK properties (half-lives and blood levels achieved) ([2]; after s.c. administration): good PK properties | AUC ([2]; oral): 35.7 µM·h | Cmax ([2]; oral): 2380 nM | half-life ([2]; oral): 28.8 h | AUC ([2]; sc): 34.7 µM·h | Cmax ([2]; sc): 1200 nM | half-life ([2]; sc): 135 h | IC50 (FOXM1): 1240 nM
Compound: Clc1ccc(C(=C2C3CC4CC(C3)CC2C4)c2ccc(OCCCCCCN3CCCC3)cc2)cc1 [NB-55]
concentration for 50% suppression of proliferation relative to breast cancer cell lines (MCF10A breast cell line): five times higher
